The text below walks through data of ChEMBL document CHEMBL1201862, “PubChem BioAssay data set” (2004).

The structures appear in SMILES notation.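 96-well plates; 48 h exposure; 5 concentrations. Endpoints by linear interpolation between flanking doses. Not reached: highest tested concentration assigned. Here, GI50 denotes the concentration required for 50% inhibition of growth.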 Activity calls are given as the source filed them. No stated cut-off is given here; in the data, active = GI50 up to about 1.1 µM and inactive = higher.

Test systems include CCRF-CEM; HCC 2998; Hs-578T; MDA-MB-231; MDA-N; MOLT-4; NCI-H226; NCI-H460; NCI-H522; OVCAR-3; OVCAR-5; RXF 393; SF-295; SF-539; SK-MEL-2; SK-OV-3; SN12C; SW-620; T47D; TK-10.
Experiment in all cases: growth of human tumour cells (NCI), 48 h

For the compound `COC(=O)c1ccc(CCc2cc(O)ccc2O)cc1`, the GI50 in the assay with CCRF-CEM was 0.67 µM (active); with HCC 2998, 23.9 µM (inactive); in the assay on Hs-578T, 16.1 µM (inactive); in the assay with MDA-MB-231, 10.1 µM (inactive); in the assay on MDA-N, 5.94 µM (inactive); with MOLT-4, 1.77 µM (inactive). Besides, the GI50 in the assay with NCI-H226 is 9.29 µM (inactive); with NCI-H460 it was 37 µM (inactive); in the assay with NCI-H522 it was 0.706 µM (active); with OVCAR-3, 2.96 µM (inactive); with OVCAR-5, 19.2 µM (inactive); in the assay with RXF 393 it was 7.89 µM (inactive). In addition, the GI50 with SF-295 is 21.3 µM (inactive); in the assay with SF-539, 3.66 µM (inactive); in the assay with SK-MEL-2, 18.8 µM (inactive); with SK-OV-3, 38 µM (inactive); with SN12C it was 7.98 µM (inactive); with SW-620, 6.27 µM (inactive). For the same compound, the figures for the GI50 in the assay with T47D and with TK-10 were 2.6 µM (inactive) and 22.4 µM (inactive), respectively.
Regarding `O=c1c2ccc(Cl)cc2oc2c(CSc3ccccc3)cccc12`, the GI50 is 10.1 µM (inactive) in the assay with CCRF-CEM; > 54.1 µM (inactive) in the assay with HCC 2998; > 100 µM (inactive) with Hs-578T; > 63 µM (inactive) with MDA-MB-231; 31.7 µM (inactive) in the assay with MDA-N; 15.8 µM (inactive) with MOLT-4. Moreover, the GI50 in the assay with NCI-H226 is 46.3 µM (inactive); in the assay on NCI-H460 it was 23.8 µM (inactive); in the assay on NCI-H522 it was > 32.5 µM (inactive); in the assay with OVCAR-3, > 40.8 µM (inactive); in the assay on OVCAR-5, > 62.8 µM (inactive); in the assay on RXF 393, > 100 µM (inactive). For the same compound, the GI50 in the assay with SF-295 was > 43.9 µM (inactive); in the assay with SF-539 it was 24.5 µM (inactive); in the assay on SK-MEL-2 it was > 49.1 µM (inactive); with SK-OV-3, > 55 µM (inactive); in the assay with SN12C, 43.6 µM (inactive); in the assay with SW-620, 21.5 µM (inactive). Further, the figures for the GI50 in the assay with T47D and in the assay with TK-10 were 61.7 µM (inactive) and > 55.3 µM (inactive), respectively.
In the case of `CC(=O)/C(=C(/Br)I)c1ccccc1`, the GI50 was 1.58 µM (inactive) with CCRF-CEM; 6.81 µM (inactive) with HCC 2998; 30.7 µM (inactive) in the assay with Hs-578T; 13.2 µM (inactive) in the assay with MDA-MB-231; 3.45 µM (inactive) with MDA-N; 1.73 µM (inactive) in the assay on MOLT-4. For the same compound, the GI50 in the assay on NCI-H226 is 7.45 µM (inactive); in the assay with NCI-H460 it was 20.3 µM (inactive); in the assay with NCI-H522, 0.442 µM (active); with OVCAR-3, 6.49 µM (inactive); in the assay on OVCAR-5, 18.1 µM (inactive); in the assay on RXF 393, 3.36 µM (inactive). For the same compound, the GI50 was 15.5 µM (inactive) in the assay on SF-295; 16.6 µM (inactive) in the assay on SF-539; 4.82 µM (inactive) with SK-MEL-2; 28.6 µM (inactive) in the assay with SK-OV-3; 5.26 µM (inactive) in the assay with SN12C; 3.15 µM (inactive) with SW-620. Further, the results for the GI50 in the assay on T47D and in the assay on TK-10 were 3.48 µM (inactive) and 21 µM (inactive), respectively.
As for `COC1(OC)C2(Cl)CCC1(Cl)C(OC(C)=O)C2` (stereo not given), the GI50 with CCRF-CEM, with HCC 2998, in the assay on Hs-578T, in the assay on MDA-MB-231, with MDA-N and in the assay with MOLT-4 was > 100 µM (inactive) each time. In addition, the GI50 with NCI-H226 was > 100 µM (inactive); in the assay on NCI-H460 it was > 100 µM (inactive); with NCI-H522, > 74.1 µM (inactive); with OVCAR-3 it was > 100 µM (inactive); in the assay with OVCAR-5 it was > 100 µM (inactive); with RXF 393 it was > 100 µM (inactive). Further, the GI50 in the assay on SF-295, in the assay on SF-539, with SK-MEL-2, in the assay on SK-OV-3, in the assay with SN12C and in the assay with SW-620 was > 100 µM (inactive) in each case. The GI50 in the assay with T47D and with TK-10 was > 100 µM (inactive) throughout.
